In the NIST ThermoML archive (doi:10.1016/j.jct.2014.02.022):

What was measured:
[1] = mn = molality of the nth substance listed, in mol/kg; conditions: 101 kPa, Liquid; for viscosity: Capillary tube (Ostwald / Ubbelohde) method; for mass density: Vibrating tube method
[2] = 101 kPa, Liquid; for viscosity: Capillary tube (Ostwald / Ubbelohde) method; for mass density: Vibrating tube method

Cc1ncc(CO)c(CO)c1O.Cl [5-hydroxy-6-methyl-3,4-pyridinedimethanol hydrochloride] + CO
[1]
Conditions | mass density, 298.15 K [kg/m3] | mass density, 308.15 K [kg/m3] | mass density, 318.15 K [kg/m3] | viscosity, 298.15 K [mPa·s] | viscosity, 308.15 K [mPa·s] | viscosity, 318.15 K [mPa·s]
m1 = 0.0127 | 789.07 | 778.65 | 769.25 | 0.5562 | 0.4853 | 0.4275
m1 = 0.0254 | 789.94 | 779.85 | 770.18 | 0.5621 | 0.4955 | 0.4468
m1 = 0.0382 | 790.86 | 780.83 | 771.13 | 0.5712 | 0.5034 | 0.464

CO [methanol]
[2]
Conditions | mass density [kg/m3] | viscosity [mPa·s]
298.15 K | 786.67 | 0.543
308.15 K | 777.18 | 0.4708
318.15 K | 767.75 | 0.4194

CO [methanol] + Cc1ncc(CO)c(CO)c1O.Cl
[1], m2 = 0
Conditions | mass density [kg/m3] | viscosity [mPa·s]
298.15 K | 786.67 | 0.543
308.15 K | 777.18 | 0.4708
318.15 K | 767.75 | 0.4194
